{"source": "ChEMBL document CHEMBL4024706", "about": "(Eur J Med Chem, 2017)", "key": {"[1]": {"target": "Dual specificity mitogen-activated protein kinase kinase 7 (Homo sapiens) (UniProt O14733)", "assay": "Inhibition of wild-type human full length MKK7 (M1 to R419 residues) expressed in mammalian expression system assessed as residual activity at 1 uM by Kinomescan method relative to control"}, "[2]": {"target": "Casein kinase I isoform gamma-2 (Homo sapiens) (UniProt P78368)", "assay": "Inhibition of wild-type human full length CSNK1G2 (M1 to K415 residues) expressed in bacterial expression system assessed as residual activity at 1 uM by Kinomescan method relative to control"}, "[3]": {"target": "Serine/threonine-protein kinase Sgk1 (Homo sapiens) (UniProt O00141)", "assay": "Inhibition of wild-type human partial length SGK (I60 to L431 residues) expressed in mammalian expression system assessed as residual activity at 1 uM by Kinomescan method relative to control"}, "[4]": {"system": "Tyrosine-protein kinase ABL1 (Homo sapiens), P00519 [H396P]", "assay": "Inhibition of human non-phosphorylated ABL1 H396P mutant (S229 to K512 residues) expressed in mammalian expression system assessed as residual activity at 1 uM by Kinomescan method relative to control"}, "[5]": {"target": "Serine/threonine-protein kinase 35 (Homo sapiens) (UniProt Q8TDR2)", "assay": "Inhibition of wild-type human partial length STK35 (G182 to A534 residues) expressed in bacterial expression system assessed as residual activity at 1 uM by Kinomescan method relative to control"}, "[6]": {"target": "Phosphorylase b kinase gamma catalytic chain, liver/testis isoform (Homo sapiens) (UniProt P15735)", "assay": "Inhibition of wild-type human partial length PHKG2 (M1 to W300 residues) expressed in bacterial expression system assessed as residual activity at 1 uM by Kinomescan method relative to control"}, "[7]": {"system": "ALK tyrosine kinase receptor (Homo sapiens), Q9UM73 [L1196M]", "assay": "Inhibition of […] human partial length ALK L1196M mutant (I1088 to E1409 residues) expressed in mammalian expression system assessed as residual activity at 1 uM by Kinomescan method relative to control"}, "[8]": {"target": "Serine/threonine-protein kinase N2 (Homo sapiens) (UniProt Q16513)", "assay": "Inhibition of wild-type human partial length PKN2 (E634 to C984 residues) expressed in bacterial expression system assessed as residual activity at 1 uM by Kinomescan method relative to control"}, "[9]": {"target": "Mitogen-activated protein kinase 7 (Homo sapiens) (UniProt Q13164)", "sequence (Q13164 2-816 limits assumed)": "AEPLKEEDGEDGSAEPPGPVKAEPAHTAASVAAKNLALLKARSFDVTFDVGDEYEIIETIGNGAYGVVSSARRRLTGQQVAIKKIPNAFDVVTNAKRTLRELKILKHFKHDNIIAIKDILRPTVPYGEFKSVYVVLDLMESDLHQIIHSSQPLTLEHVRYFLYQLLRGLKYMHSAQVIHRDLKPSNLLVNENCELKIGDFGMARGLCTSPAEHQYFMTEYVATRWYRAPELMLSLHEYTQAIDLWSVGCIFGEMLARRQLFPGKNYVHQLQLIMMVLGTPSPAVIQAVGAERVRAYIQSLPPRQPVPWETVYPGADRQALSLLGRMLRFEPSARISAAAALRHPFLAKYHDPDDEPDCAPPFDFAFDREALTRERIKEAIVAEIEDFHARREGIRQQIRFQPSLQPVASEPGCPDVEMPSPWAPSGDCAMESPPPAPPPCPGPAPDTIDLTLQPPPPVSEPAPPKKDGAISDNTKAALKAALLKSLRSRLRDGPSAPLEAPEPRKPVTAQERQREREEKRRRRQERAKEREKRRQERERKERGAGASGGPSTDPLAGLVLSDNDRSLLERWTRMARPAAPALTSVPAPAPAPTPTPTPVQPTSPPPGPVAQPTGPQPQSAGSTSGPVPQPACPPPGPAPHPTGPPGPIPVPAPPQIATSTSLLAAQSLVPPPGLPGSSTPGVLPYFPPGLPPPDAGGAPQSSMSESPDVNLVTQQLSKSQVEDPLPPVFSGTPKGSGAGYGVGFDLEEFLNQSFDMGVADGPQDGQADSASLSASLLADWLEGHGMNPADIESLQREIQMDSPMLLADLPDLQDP", "assay": "Inhibition of wild-type human partial length ERK5 (M1 to A409 residues) expressed in bacterial expression system assessed as residual activity at 1 uM by Kinomescan method relative to control"}, "[10]": {"system": "Mast/stem cell growth factor receptor Kit (Homo sapiens), P10721 [L576P]", "assay": "Inhibition of human partial length KIT L576P mutant (Y545 to D952 residues) expressed in bacterial expression system assessed as residual activity at 1 uM by Kinomescan method relative to control"}, "[11]": {"target": "Microtubule-associated serine/threonine-protein kinase 1 (Homo sapiens) (UniProt Q9Y2H9)", "assay": "Inhibition of wild-type human partial length MAST1 (S346 to V730 residues) expressed in mammalian expression system assessed as residual activity at 1 uM by Kinomescan method relative to control"}, "U2932": {"system": "U2932", "assay": "Growth inhibition of human U2932 cells", "assay_type": "functional", "settings": "Homo sapiens, U2932"}, "[12]": {"target": "Death-associated protein kinase 3 (Homo sapiens) (UniProt O43293)", "sequence (O43293 whole entry, looked up, the tested form may be a part)": "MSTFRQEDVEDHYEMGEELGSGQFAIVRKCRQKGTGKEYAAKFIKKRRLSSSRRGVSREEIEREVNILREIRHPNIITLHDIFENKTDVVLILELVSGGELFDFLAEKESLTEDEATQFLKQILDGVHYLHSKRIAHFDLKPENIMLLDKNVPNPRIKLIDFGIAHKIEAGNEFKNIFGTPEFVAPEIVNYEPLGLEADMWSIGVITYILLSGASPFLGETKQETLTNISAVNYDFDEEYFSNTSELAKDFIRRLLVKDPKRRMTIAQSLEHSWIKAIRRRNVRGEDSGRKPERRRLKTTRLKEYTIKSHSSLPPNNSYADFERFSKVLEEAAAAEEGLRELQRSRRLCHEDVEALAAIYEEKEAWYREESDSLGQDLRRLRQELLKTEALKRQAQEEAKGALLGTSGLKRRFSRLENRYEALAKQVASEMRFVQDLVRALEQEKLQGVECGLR", "assay": "Inhibition of wild-type human partial length DAPK3 (M1 to A277 residues) expressed in bacterial expression system assessed as residual activity at 1 uM by Kinomescan method relative to control"}, "[13]": {"target": "Ribosomal protein S6 kinase alpha-3 (Homo sapiens) (UniProt P51812)", "sequence (P51812 whole entry, the tested form may be a part)": "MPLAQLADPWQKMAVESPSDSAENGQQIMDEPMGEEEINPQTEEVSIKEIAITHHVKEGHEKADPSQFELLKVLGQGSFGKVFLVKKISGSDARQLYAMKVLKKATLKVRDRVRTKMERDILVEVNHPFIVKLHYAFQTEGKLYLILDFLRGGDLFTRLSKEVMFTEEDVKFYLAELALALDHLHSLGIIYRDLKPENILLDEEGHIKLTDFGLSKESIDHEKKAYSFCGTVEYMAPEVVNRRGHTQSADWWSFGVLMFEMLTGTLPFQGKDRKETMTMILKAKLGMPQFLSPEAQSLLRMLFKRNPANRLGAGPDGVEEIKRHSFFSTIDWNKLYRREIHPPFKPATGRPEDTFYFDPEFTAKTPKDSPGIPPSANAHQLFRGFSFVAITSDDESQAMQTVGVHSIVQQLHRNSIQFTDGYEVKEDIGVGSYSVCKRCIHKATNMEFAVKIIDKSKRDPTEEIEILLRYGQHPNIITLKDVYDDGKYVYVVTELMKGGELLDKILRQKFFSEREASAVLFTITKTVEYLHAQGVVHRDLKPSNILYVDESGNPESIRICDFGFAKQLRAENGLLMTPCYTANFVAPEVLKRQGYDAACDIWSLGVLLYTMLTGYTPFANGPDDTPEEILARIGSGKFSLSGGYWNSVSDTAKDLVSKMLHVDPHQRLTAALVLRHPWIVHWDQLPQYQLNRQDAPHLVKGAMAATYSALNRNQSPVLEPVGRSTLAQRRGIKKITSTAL", "assay": "Inhibition of wild-type human partial length N-terminal RSK2 kinase domain 1 (M1 to D394 residues) expressed in mammalian expression system assessed as residual activity at 1 uM by Kinomescan method relative to control"}, "[14]": {"target": "BMP-2-inducible protein kinase (Homo sapiens) (UniProt Q9NSY1)", "assay": "Inhibition of wild-type human partial length BIKE (S34 to N329 residues) expressed in bacterial expression system assessed as residual activity at 1 uM by Kinomescan method relative to control"}, "[15]": {"target": "Mitogen-activated protein kinase kinase kinase kinase 5 (Homo sapiens) (UniProt Q9Y4K4)", "sequence (Q9Y4K4 whole entry, looked up, the tested form may be a part)": "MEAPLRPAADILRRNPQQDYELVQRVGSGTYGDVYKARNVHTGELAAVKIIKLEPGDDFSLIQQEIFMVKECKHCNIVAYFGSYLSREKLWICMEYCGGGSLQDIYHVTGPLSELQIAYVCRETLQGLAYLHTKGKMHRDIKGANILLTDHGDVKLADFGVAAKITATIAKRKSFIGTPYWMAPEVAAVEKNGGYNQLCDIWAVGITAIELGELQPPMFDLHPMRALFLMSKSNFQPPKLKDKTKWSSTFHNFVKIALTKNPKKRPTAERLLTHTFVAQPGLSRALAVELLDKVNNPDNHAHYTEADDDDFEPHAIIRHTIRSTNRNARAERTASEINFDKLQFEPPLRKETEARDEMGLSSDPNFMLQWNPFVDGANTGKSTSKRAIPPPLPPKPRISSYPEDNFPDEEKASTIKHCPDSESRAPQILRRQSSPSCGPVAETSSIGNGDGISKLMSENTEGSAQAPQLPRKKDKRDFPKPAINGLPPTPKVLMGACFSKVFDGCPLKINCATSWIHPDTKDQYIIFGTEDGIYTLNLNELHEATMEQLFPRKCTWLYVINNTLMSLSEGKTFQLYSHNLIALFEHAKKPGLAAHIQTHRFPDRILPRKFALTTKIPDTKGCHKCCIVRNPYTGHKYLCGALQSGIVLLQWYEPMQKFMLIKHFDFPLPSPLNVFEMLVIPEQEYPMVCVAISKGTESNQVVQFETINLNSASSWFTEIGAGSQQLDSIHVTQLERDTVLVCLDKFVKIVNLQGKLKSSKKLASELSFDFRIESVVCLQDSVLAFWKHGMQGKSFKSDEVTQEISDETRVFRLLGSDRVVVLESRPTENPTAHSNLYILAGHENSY", "assay": "Inhibition of wild-type human partial length MAP4K5 (M1 to P297 residues) expressed in bacterial expression system assessed as residual activity at 1 uM by Kinomescan method relative to control"}, "[16]": {"target": "Serine/threonine-protein kinase pim-2 (Homo sapiens) (UniProt Q9P1W9)", "assay": "Inhibition of wild-type human partial length PIM2 (M1 to E291 residues) expressed in bacterial expression system assessed as residual activity at 1 uM by Kinomescan method relative to control"}, "[17]": {"target": "AP2-associated protein kinase 1 (Homo sapiens) (UniProt Q2M2I8)", "assay": "Inhibition of human wild-type AAK1 (G25 to L333 residues) expressed in bacterial expression system assessed as residual activity at 1 uM by Kinomescan method relative to control"}, "[18]": {"target": "Homeodomain-interacting protein kinase 3 (Homo sapiens) (UniProt Q9H422)", "assay": "Inhibition of wild-type human partial length HIPK3 (M153 to N562 residues) expressed in mammalian expression system assessed as residual activity at 1 uM by Kinomescan method relative to control"}, "[19]": {"target": "Tyrosine-protein kinase ZAP-70 (Homo sapiens) (UniProt P43403)", "assay": "Inhibition of wild-type human partial length ZAP70 (D20 to G299 residues) expressed in mammalian expression system assessed as residual activity at 1 uM by Kinomescan method relative to control"}, "[20]": {"target": "Serine/threonine-protein kinase PAK 6 (Homo sapiens) (UniProt Q9NQU5)", "assay": "Inhibition of wild-type human partial length PAK6 (N298 to C681 residues) expressed in bacterial expression system assessed as residual activity at 1 uM by Kinomescan method relative to control"}, "[21]": {"target": "Ribosomal protein S6 kinase alpha-6 (Homo sapiens) (UniProt Q9UK32)", "assay": "Inhibition of wild-type human partial length C-terminal RSK4 kinase domain 2 (I401 to Y711 residues) expressed in bacterial expression system assessed as residual activity at 1 uM by Kinomescan method relative to control"}, "[22]": {"target": "Tyrosine-protein kinase Lyn (Homo sapiens) (UniProt P07948)", "sequence (P07948 2-512 limits assumed)": "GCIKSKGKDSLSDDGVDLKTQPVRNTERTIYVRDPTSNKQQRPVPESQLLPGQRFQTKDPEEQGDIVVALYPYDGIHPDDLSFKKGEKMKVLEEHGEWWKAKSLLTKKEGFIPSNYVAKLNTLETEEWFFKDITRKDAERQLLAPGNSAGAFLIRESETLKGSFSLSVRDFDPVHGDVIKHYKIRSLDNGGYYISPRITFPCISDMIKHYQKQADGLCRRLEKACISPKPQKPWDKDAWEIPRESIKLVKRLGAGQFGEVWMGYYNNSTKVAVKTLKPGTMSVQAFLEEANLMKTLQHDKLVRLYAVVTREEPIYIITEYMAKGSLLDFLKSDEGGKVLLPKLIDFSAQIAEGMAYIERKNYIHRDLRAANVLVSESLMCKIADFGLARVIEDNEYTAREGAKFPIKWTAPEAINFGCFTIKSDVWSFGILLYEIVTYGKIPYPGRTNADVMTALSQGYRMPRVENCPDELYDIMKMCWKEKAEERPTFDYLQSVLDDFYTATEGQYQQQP", "assay": "Inhibition of wild-type human partial length LYN (C219 to Q511 residues) expressed in bacterial expression system assessed as residual activity at 1 uM by Kinomescan method relative to control"}, "[23]": {"target": "cAMP-dependent protein kinase catalytic subunit PRKX (Homo sapiens) (UniProt P51817)", "assay": "Inhibition of wild-type human partial length PRKX (M1 to F358 residues) expressed in bacterial expression system assessed as residual activity at 1 uM by Kinomescan method relative to control"}, "[24]": {"system": "eIF-2-alpha kinase GCN2 (Homo sapiens), Q9P2K8 [S808G]", "sequence (Q9P2K8 whole entry S808G, the tested form may be a part)": "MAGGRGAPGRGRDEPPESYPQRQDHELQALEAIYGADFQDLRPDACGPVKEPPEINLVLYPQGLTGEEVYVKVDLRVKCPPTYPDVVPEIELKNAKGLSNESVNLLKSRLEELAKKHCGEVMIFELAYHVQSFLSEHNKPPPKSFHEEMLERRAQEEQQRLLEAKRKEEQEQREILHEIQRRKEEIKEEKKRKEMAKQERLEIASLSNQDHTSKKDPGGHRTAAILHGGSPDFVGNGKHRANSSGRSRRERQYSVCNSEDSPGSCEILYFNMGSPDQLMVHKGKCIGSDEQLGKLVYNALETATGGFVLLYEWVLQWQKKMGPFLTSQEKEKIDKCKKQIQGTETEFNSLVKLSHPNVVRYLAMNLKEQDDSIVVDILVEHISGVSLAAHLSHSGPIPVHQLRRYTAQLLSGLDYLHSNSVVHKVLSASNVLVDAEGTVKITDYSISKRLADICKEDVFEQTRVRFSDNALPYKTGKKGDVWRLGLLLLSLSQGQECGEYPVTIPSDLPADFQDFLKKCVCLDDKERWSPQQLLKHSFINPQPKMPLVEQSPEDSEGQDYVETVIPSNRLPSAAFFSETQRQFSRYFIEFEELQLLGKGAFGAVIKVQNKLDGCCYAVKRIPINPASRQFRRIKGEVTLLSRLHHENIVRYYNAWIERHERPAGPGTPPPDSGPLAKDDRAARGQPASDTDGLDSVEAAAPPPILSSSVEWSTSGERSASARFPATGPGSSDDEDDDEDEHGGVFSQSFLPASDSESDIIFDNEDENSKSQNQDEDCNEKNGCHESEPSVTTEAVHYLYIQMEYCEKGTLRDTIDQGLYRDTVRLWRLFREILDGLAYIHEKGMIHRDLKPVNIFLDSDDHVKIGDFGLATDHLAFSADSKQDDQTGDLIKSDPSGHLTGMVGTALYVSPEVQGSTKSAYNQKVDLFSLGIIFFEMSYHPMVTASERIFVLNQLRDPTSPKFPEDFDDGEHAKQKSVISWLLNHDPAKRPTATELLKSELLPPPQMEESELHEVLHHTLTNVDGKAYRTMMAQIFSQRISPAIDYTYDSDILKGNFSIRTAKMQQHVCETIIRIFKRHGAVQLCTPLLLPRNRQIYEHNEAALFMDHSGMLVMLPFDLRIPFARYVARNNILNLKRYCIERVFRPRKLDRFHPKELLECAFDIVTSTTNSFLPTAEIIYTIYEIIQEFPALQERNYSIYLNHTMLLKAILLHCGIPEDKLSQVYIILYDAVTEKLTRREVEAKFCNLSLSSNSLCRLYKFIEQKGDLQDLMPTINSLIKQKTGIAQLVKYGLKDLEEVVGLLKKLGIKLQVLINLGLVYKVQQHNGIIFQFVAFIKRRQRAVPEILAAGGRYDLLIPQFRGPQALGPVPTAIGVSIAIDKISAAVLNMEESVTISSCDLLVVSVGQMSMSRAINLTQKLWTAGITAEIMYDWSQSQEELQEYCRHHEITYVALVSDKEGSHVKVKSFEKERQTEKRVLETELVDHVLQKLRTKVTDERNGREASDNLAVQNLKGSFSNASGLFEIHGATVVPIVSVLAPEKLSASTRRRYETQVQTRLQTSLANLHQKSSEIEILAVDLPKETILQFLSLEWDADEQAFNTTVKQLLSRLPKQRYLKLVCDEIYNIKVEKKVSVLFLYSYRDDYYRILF", "assay": "Inhibition of […] human partial length GCN2 kinase domain 2 (R585 to T1018 residues) S808G mutant expressed in bacterial expression system assessed as residual activity at 1 uM by Kinomescan method relative to control"}}}
{"smiles": "C=CC(=O)Nc1cc(Nc2cc(-c3cccc(NC(=O)c4ccc(C(C)(C)C)cc4)c3C)cn(C)c2=O)ccc1C(=O)N1CCOCC1", "values": [{"measurement": "Activity", "setting": "[1]", "value": 100, "unit": "%"}, {"measurement": "Activity", "setting": "[2]", "value": 94, "unit": "%"}, {"measurement": "Activity", "setting": "[3]", "value": 95, "unit": "%"}, {"measurement": "Activity", "setting": "[4]", "value": 100, "unit": "%"}, {"measurement": "Activity", "setting": "[5]", "value": 94, "unit": "%"}, {"measurement": "Activity", "setting": "[6]", "value": 100, "unit": "%"}, {"measurement": "Activity", "setting": "[7]", "value": 96, "unit": "%"}, {"measurement": "Activity", "setting": "[8]", "value": 93, "unit": "%"}, {"measurement": "Activity", "setting": "[9]", "value": 99, "unit": "%"}, {"measurement": "Activity", "setting": "[10]", "value": 97, "unit": "%"}, {"measurement": "Activity", "setting": "[11]", "value": 98, "unit": "%"}, {"measurement": "GI50", "setting": "U2932", "value": 2400, "unit": "nM"}, {"measurement": "Activity", "setting": "[12]", "value": 100, "unit": "%"}, {"measurement": "Activity", "setting": "[13]", "value": 100, "unit": "%"}, {"measurement": "Activity", "setting": "[14]", "value": 94, "unit": "%"}, {"measurement": "Activity", "setting": "[15]", "value": 100, "unit": "%"}, {"measurement": "Activity", "setting": "[16]", "value": 90, "unit": "%"}, {"measurement": "Activity", "setting": "[17]", "value": 96, "unit": "%"}, {"measurement": "Activity", "setting": "[18]", "value": 100, "unit": "%"}, {"measurement": "Activity", "setting": "[19]", "value": 100, "unit": "%"}, {"measurement": "Activity", "setting": "[20]", "value": 100, "unit": "%"}, {"measurement": "Activity", "setting": "[21]", "value": 89, "unit": "%"}, {"measurement": "Activity", "setting": "[22]", "value": 92, "unit": "%"}, {"measurement": "Activity", "setting": "[23]", "value": 98, "unit": "%"}, {"measurement": "Activity", "setting": "[24]", "value": 100, "unit": "%"}]}
